Measurements taken from PubChem BioAssay AID179 (DTP/NCI, 2004).
Several values for one entry are separate records, joined by “and”; a condition that tells them apart may be missing. Equal entries are not always repeated. Activity calls are given as the source filed them.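 How the source made its calls: active means compounds giving half or more protection of infected cells from virus-caused growth loss, again on retest; inactive means the rest.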 Where a SMILES comes first, the peptide text is derived from it.

Tested on: CEM cells HIV-1 protection, formazan growth assay
Assay: NCI AIDS Antiviral Assay
Conditions: for IC50: measured here: growth of uninfected CEM cells
In short: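 Human CEM cells, uninfected and HIV-1-infected, received five drug concentrations, and growth was read by soluble formazan assay. Compounds giving at least 50% protection were retested; reproducible 100% protection defined confirmed active.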

| Compound | EC50 | IC50 | outcome |
| --- | --- | --- | --- |
| CCC(C)C(NC(=O)C1CCCN1C(=O)C(Cc1ccc(O)cc1)NC(=O)C(CC(N)=O)NC(=O)C(CCC(N)=O)NC(=O)C(CO)NC(=O)C(N)C(C)C)C(=O)NC(CC(C)C)C(=O)NC(CCC(N)=O)C(N)=O (stereo not drawn) (H-VSQNYPILQ-NH2; configuration not given here) | > 58.9 µM | > 58.9 µM |  |
| CN(C)Cc1cc(C(=O)/C=C/c2ccc(Br)cc2)cc(CN(C)C)c1O | > 200 µM | 4.47 µM |  |
| CO/C(=N\N=C\c1ccc(Cl)cc1)c1ccncc1 | > 200 µM | > 200 µM |  |
| O=C(Cc1ccccc1)N/N=C(/c1nc2ccc([N+](=O)[O-])cc2[nH]c1=O)C(O)c1ccccc1Cl (stereo not drawn) | > 72.4 µM | > 72.4 µM |  |
| CN1C(=O)CSC1=S | > 1700 µM | 4.79 µM and 36.3 µM |  |
| CC/C(=C\c1ccc(OC)cc1)c1ccc(OC)cc1 | > 200 µM | > 200 µM |  |
| c1ccc2c(c1)ncn2CCn1ccnc1 | > 200 µM | > 200 µM |  |
| NNC(=S)SSC(=S)NN | > 200 µM | 21.9 µM |  |
| CC1(c2ccc3ccccc3c2)OC(=O)c2ccccc21 (stereo not drawn) |  |  | inactive |
| CC(C)(C)OC(=O)NC(CSCc1ccc(C(=O)c2ccccc2)cc1)C(=O)O (stereo not drawn) | > 200 µM | 50.1 µM |  |
| COc1ccccc1C=C1C(=O)NC(=O)NC1=O | > 145 µM | > 145 µM |  |
| Clc1cc(Cl)c2c(Cl)cc(Cl)c3c2c1N=S=N3 |  |  | inactive |
| C=CCN=C1NC(=O)C(CC(=O)Nc2ccc([N+](=O)[O-])cc2[N+](=O)[O-])S1 (stereo not drawn) | > 13.8 µM | > 13.8 µM |  |
| O=P(Oc1ccccc1)(Oc1ccccc1)N1CCOCC1 | > 200 µM | 170 µM |  |
| COc1cc2c(cc1O)C1C(O2)c2ccc(OCc3ccccc3)cc2OC1(C)C (stereo not drawn) | > 200 µM | 15.1 µM |  |
| NC(=O)c1ncn(Cc2ccccc2)c1CNC(N)=S |  |  | inactive |
| COC1(OC)C2(Cl)C(Cl)=C(Cl)C1(Cl)C1C2C2CC1(C(=O)O)c1ccccc12 (stereo not drawn) | > 251 µM | 13.5 µM |  |
| CC(Cc1cccc2c1Nc1ccccc1S2)N(C)CCO (stereo not drawn) | > 200 µM | 33.9 µM |  |
| CC1(C)OC(=O)C(=Cc2ccccc2Br)C(=O)O1 | > 417 µM | 1.29 µM |  |
| CC(=Nc1ccccc1C(=O)[O-])c1c([O-])ccc2c(C)cc(=O)oc12.[Ni+2].[OH3+] | > 2.51 µM | > 2.51 µM |  |
| Cc1noc2c1N=C(c1cccs1)CC(c1c(Cl)cccc1Cl)C2 (stereo not drawn) | > 19.1 µM | > 19.1 µM |  |

| Compound | EC50 | IC50 | outcome |
| --- | --- | --- | --- |
| CC(=O)NNC(=S)/N=C\C(C(=O)c1ccccc1)=C(/O)c1ccccc1 | > 200 µM | > 200 µM |  |
| CCn1c(=O)c2c3ccc(O)cc3[nH]c2c2ccc(O)cc21 | > 200 µM | 38.9 µM |  |
| C=C1C2=C(CCCC2)C(=O)OC12CCCCC2 | > 100 µM | > 100 µM |  |
| COc1ccc(OC)c(C(O)C(C)NC(C)(C)C)c1 (stereo not drawn) | > 200 µM | > 200 µM |  |
| Fc1cccc(F)c1C1SCc2nc3cc(Cl)c(Cl)cc3n21 (stereo not drawn) | 120 µM | 195 µM |  |
| Nc1ncnc2c1ncn2C1CCCCC1O (stereo not drawn) | > 58.9 µM | > 58.9 µM |  |
| Cc1ccc(S(=O)(=O)N2C[C@H](O)C[C@H]2C(=O)O)cc1 |  |  | inactive |
| C[C@H](CCC1=NCCN1)[C@H]1CC[C@H]2[C@@H]3CC[C@@H]4C[C@H](O)CC[C@]4(C)[C@H]3CC[C@]12C | > 100 µM | 13.8 µM |  |
| CC(=O)OCC1OC(n2c3c(c(-c4cccc5ccccc45)c(C#N)c2=S)CCCC3)C(OC(C)=O)C(OC(C)=O)C1OC(C)=O (stereo not drawn) | > 200 µM | 47.9 µM |  |
| COc1cc2ccc3c4ccccc4cnc3c2cc1OC | > 89.1 µM | > 89.1 µM |  |
| N#CC(/C=C/c1ccccc1)Nc1ccccc1N (stereo not drawn) | > 28.8 µM | > 28.8 µM |  |
| c1ccc(-c2sc(-c3ccccc3)c3c2C2CCC3C2)cc1 | > 200 µM | 36.3 µM |  |
| Cc1ccc(C(=O)Cc2nc3c([nH]c2=O)c(C)nn3-c2ccccc2)c(C)c1 | > 200 µM | > 200 µM |  |
| O=C(O)CCCCCCCC(O)C(O)CCCCCCCC(=O)O (stereo not drawn) | > 195 µM | > 195 µM |  |
| CNC(=O)Oc1c(Cl)cccc1SSc1cccc(Cl)c1OC(=O)NC | > 200 µM | 19.5 µM |  |
| COC(=O)CC1(C)[C@H](O)[C@H]2OC(C)(C)O[C@H]2[C@@H]1O (stereo partly drawn) | > 955 µM | > 955 µM |  |
| COc1ccc(/C=c2/s/c(=C(\C#N)c3nc4ccccc4[nH]3)n(-c3ccccc3)c2=O)cc1 | > 200 µM | 37.2 µM |  |
| COc1c(O)ccc2oc3cc(O)cc(O)c3c(=O)c12 | > 200 µM | 145 µM |  |
| Cc1c(C)n(COCCO)c2ncnc(N)c12 | > 200 µM | > 200 µM |  |
| CC1=CC[C@@H]2C(=O)C=CC=C[C@H]12.[C-]#[O+].[C-]#[O+].[C-]#[O+].[Fe] | > 316 µM | 178 µM |  |
| CC(C)NCC1CCc2cc(CO)c([N+](=O)[O-])cc2N1 (stereo not drawn) | > 200 µM | > 200 µM |  |

| Compound | EC50 | IC50 | outcome |
| --- | --- | --- | --- |
| CCOC(=O)C(NC(=O)CC)(Nc1ccccc1OC)C(F)(F)F (stereo not drawn) | > 200 µM | > 200 µM |  |
| Nc1cc(N)c(N=Nc2ccc(/C=C/c3ccc(N=Nc4c(N)cc(N)cc4C(=O)O)cc3S(=O)(=O)O)c(S(=O)(=O)O)c2)c(C(=O)O)c1 | > 178 µM | 170 µM |  |
| COc1cc(/C=C(\NC(=O)c2ccccc2)c2nc3[nH]c(=S)[nH]c(=O)c3[nH]2)cc(OC)c1OC |  |  | inactive |
| COC(=O)c1cc(OS(=O)(=O)C(F)(F)F)c(=O)n2c1CCCC2 | > 200 µM | 89.1 µM |  |
| COC(=O)C([C@H](NC1(c2ccccc2)c2ccccc2-c2ccccc21)C(=O)OC)N(NC(=O)OCc1ccccc1)C(=O)OCc1ccccc1 (mixture of isomers) | > 200 µM | 110 µM |  |
| Cn1c(-c2cccc([N+](=O)[O-])c2)[n+](C)c2ccccc21 | > 200 µM | 18.6 µM |  |
| CN(C)CCCNC(CC#N)CCC#N (stereo not drawn) | > 200 µM | > 200 µM |  |
| O=C1NC(=S)N/C1=C/c1ccccc1O | > 200 µM | 123 µM |  |
| O=S1(=O)OCCOS(=O)(=O)C1Cc1nc2ccccc2[nH]1 | > 200 µM | 32.4 µM |  |
| CSc1nc(=O)c(C#N)c(-c2ccccc2)n1C1OC(COC(C)=O)C(OC(C)=O)C(OC(C)=O)C1OC(C)=O (stereo not drawn) | > 200 µM | 93.3 µM |  |
| CC(C)COP(C)(=O)C(N)(C(F)(F)F)C(F)(F)F (stereo not drawn) | > 200 µM | > 200 µM |  |
| COc1ccc(C(O)c2ccc3c(c2)OCO3)cc1 (stereo not drawn) | > 200 µM | 162 µM |  |
| O=S(=O)(O)NCC1OC2OC3C(CNS(=O)(=O)O)OC(OC4C(CNS(=O)(=O)O)OC(OC5C(CNS(=O)(=O)O)OC(OC6C(CNS(=O)(=O)O)OC(OC7C(CNS(=O)(=O)O)OC(OC8C(CNS(=O)(=O)O)OC(OC1C(OS(=O)(=O)O)C2OS(=O)(=O)O)C(OS(=O)(=O)O)C8OS(=O)(=O)O)C(OS(=O)(=O)O)C7OS(=O)(=O)O)C(OS(=O)(=O)O)C6OS(=O)(=O)O)C(OS(=O)(=O)O)C5OS(=O)(=O)O)C(OS(=O)(=O)O)C4OS(=O)(=O)O)C(OS(=O)(=O)O)C3OS(=O)(=O)O (stereo not drawn) | > 50.1 µM | > 50.1 µM |  |
| N.N.N.N.N.O=[N+]([O-])[O-].[Co+3].[O-][Cl+3]([O-])([O-])[O-] |  |  | inactive |
| Oc1ccc2c(c1)-c1c(c3ccccc3n1CCN1CCOCC1)CC2 | > 200 µM | 32.4 µM |  |
| FC(F)(F)C(F)(F)/C(=N/Nc1ccccc1)SS/C(=N\Nc1ccccc1)C(F)(F)C(F)(F)F | > 200 µM | 3.16 µM |  |
| O=C1CCC(N2C(=O)C3C(C2=O)C2(Cl)C(Cl)=C(Cl)C3(Cl)C2(Cl)Cl)C(=O)N1 (stereo not drawn) | > 200 µM | > 200 µM |  |
| CC(=O)O[C@]1(C)C(=O)OC2C1C(OC(=O)C=C(C)C)C[C@](C)(OC(C)=O)[C@H]1[C@H](O)C=C(C)[C@@H]21 (stereo partly drawn) | > 269 µM | 10 µM |  |
| CCOC(=O)Cn1c(C)nc2nn(Cc3ccccc3)cc2c1=O | > 200 µM | > 200 µM |  |
| FC(F)(F)c1ccc2c(-c3cc[nH]c3)ccnc2c1 | > 200 µM | 15.5 µM |  |
| COc1cccc(C2c3cc4c(cc3OC(N3CCCCC3)C2C)OCO4)c1O (stereo not drawn) | > 200 µM | 3.02 µM |  |

| Compound | EC50 | IC50 | outcome |
| --- | --- | --- | --- |
| O=C(NC1=Nc2c(ncn2COCCO)S(=O)(=O)[N-]1)c1ccccc1.[Ag+] | > 200 µM | 3.55 µM |  |
| N#CC(C#N)=CNC(=S)Nc1ccc(Cl)c(Cl)c1 | > 200 µM | 15.1 µM |  |
| COC(=O)C(C(=O)C(=O)NC1Nc2ccc(C)cc2S1)c1nc2ccc(Cl)cc2[nH]c1=O (stereo not drawn) | > 28.8 µM | > 28.8 µM |  |
| COc1ccc(/C=N/N=C(\N)NO)c(OC)c1OC | > 200 µM | > 200 µM |  |
| CCC(C)C1(O)OC2CC3(C)OC(=CC3=O)/C(C)=C\C3OC(=O)C1(C)C32 (stereo not drawn) | > 138 µM | 7.59 µM |  |
| COc1csc([C@H]2CCC3[C@@H]4CC=C5C[C@@H](OC(C)=O)CC[C@]5(C)C4CC[C@@]32C)n1 (stereo partly drawn) | > 57.5 µM | > 57.5 µM |  |
| CCN(CC)CCC(=O)c1ccc(Oc2ccc(F)cc2)cc1 | > 200 µM | 22.9 µM |  |
| Cc1nc2c(=S)n(C)ncc2[nH]1 | 30.9 µM | > 100 µM |  |
| OCc1ncccc1O | > 200 µM | > 200 µM |  |
| C/C(=N\Nc1ccccc1Br)c1cccc(/C(C)=N/Nc2ccccc2Br)n1 | > 100 µM | 85.1 µM |  |
| Cc1nc2ccccc2n1C(=O)c1c(F)c(F)c(F)c(F)c1F | > 200 µM | 33.9 µM |  |
| COc1cc2c(c(C)c1O)[C@H]1Cc3ccccc3[C@H]1O2 | > 7.41 µM | > 7.41 µM |  |
| CC1(C)CC(/C=C2/OC(=O)c3ccccc32)=C(C(N)=O)C(=O)O1 | > 83.2 µM | > 83.2 µM |  |
| O=C(/C=C/c1ccccc1O)c1ccccc1 | > 60.3 µM | > 60.3 µM |  |
| CCCc1cc(=O)oc2c3c(c4c(c12)OC(C)(C)C=C4)O[C@H](C)[C@@H](C)C3O (stereo partly drawn) | 2.4 µM | 11.7 µM |  |
| Clc1ccc(-c2c3nc(c(-c4ccc(Cl)cc4)c4ccc([nH]4)c(-c4ccc(Cl)cc4)c4nc(c(-c5ccc(Cl)cc5)c5ccc2[nH]5)C=C4)C=C3)cc1 | > 200 µM | > 200 µM |  |
| Cc1ccc(/C=C2/NC(=S)SC2=O)cc1 | > 200 µM | 170 µM |  |
| COC(=O)c1cccc2cccc(C(=O)Nc3ccc(Cl)cc3)c12 | > 11.2 µM | > 11.2 µM |  |
| N#C/C(=C\c1ccc(-c2ccccc2)cc1)c1ccc(Cl)cc1 | > 100 µM | > 100 µM |  |
